pKi: −log10 of the molar value. Like-named read-outs stand apart in the source and are kept apart here.
Assays:
[1] = tested on: isolated rat brain sodium channels (site 5); details: read-out: Ki, competitive displacement assay, synaptosomal binding
sodium channels [2] = experiment: Patch clamp single sodium channel currents in membrane patches; type: cell-based; details: 100 nM, n=6, FIG. 2C, 2D
Protocol: FIG. 2A-D illustrates single sodium channel currents in patch clamp sodium channels during successive command depolarizations to −10 mV from a command potential of −100 mV in the same membrane patch before (2A) and after (2B) exposure to β-naphthoyl-PbTx-3 (100 nM, n=6). […] The average area under the β-naphthoyl-PbTx-3 curve was 71.8±18.3% less than that of PbTx-3.
FIG. 3A-E illustrates the steady state currents in four different membrane patches at a steady state command voltage of −50 mV. 3A are control traces preceeding the test with PbTx-3, and are representative of control recordings observed in all four patches during 7.2 s of continuous observation. 3B are traces for membrane patches exposed to PbTx-3 (100 nM, […]). 3C are traces for membrane patches exposed to benzoyl-PbTx-3 (100 nM, n=6). 3D are traces for membrane patches exposed to α-naphthoyl-PbTx-3 (100 nM, n=6). 3E are traces for membrane patches exposed to β-naphthoyl-PbTx-3 (100 nM, n=6). The experimental recordings are representative of 7.2 s of continuous observation in PbTx-3 or the particular derivative.

sodium channels [3] = details: steady state; Purkerson-Parker, et al., 2000; cited from earlier work
[4] = tested on: isolated rat brain sodium channels (site 5); details: Purkerson-Parker, et al., 2000; cited from earlier work
[5] = isolated rat brain sodium channels, FIG. 1

## C=C(CO)CC1CC(O)C2(C)OC3CC4OC5CC6(C)OC7(C)CCC8OC9CC%10(C)OC%11C(C)=CC(=O)OC%11CC%10OC9CC(C)C8OC7CC6OC5(C)CC=CC4OC3CC2O1 (centres unmarked) [PbTx-3, reference compound]
[1]
  pKi: 8.52

## Benzoyl-PbTx-3
[1]; [5]
  pKi: 9.70

## α-Naphthoyl-PbTx-3
[1]; [5]
  pKi: 8.33

## β-Naphthoyl-PbTx-3
[1]; [5]
  pKi: 8.97
Sodium channels [2]; depolarizations to −10 mV from command potential of −100 mV
  average area under the ensemble average curve, less than that of PbTx-3: 71.8±18.3%
Sodium channels [2]; depolarizations to −10 mV from −100 mV
  peak sodium current (ensemble averages): reduction in peak sodium current
Sodium channels [3]
  opening of sodium channels: does not elicit opening of sodium channels in steady state
[4]
  displacement of native toxin from binding site: displaces the native toxin from its binding site

Reference: patent publication US20050124685A1, “Polyether brevetoxin derivatives as a treatment for neurotoxic shellfish poisoning and ciguatera fish poisoning” (priority 2003, published 2005)
